Usually logP stands for the decadic logarithm of the partition coefficient of the neutral form, usually between octanol and water.

`CCCCCCCc1ccc(C(=O)O)cc1` returned a logP of 5.56.

`Cc1ccccc1C(=O)c1ccccc1C` registered a log partition coefficient (logP) of 3.87.

Turning to `Cc1ccc(C(=O)O)cc1C`, the logP came out at 2.95.

`CCc1cccc(CC)c1C(=O)c1c(CC)cccc1CC` registered a logP of 6.54.

`Cc1cccc(C)c1C(=O)c1c(C)cccc1C` registered a logP of 4.69.

`CCCc1ncc[nH]1` yielded a logP of 1.3.

Consider `Nc1ccc(Br)c2ccccc12`, for which the logP was determined as 3.26.

`CCCCCc1ccc(C(=O)O)cc1` had a lipophilicity (logP) of 4.5.

For `Nc1ccc2ccc3cccc4ccc1c2c34`, the logP came out at 4.01.

Consider `CCc1c2ccccc2cc2ccccc12`, for which the lipophilicity (logP) amounted to 5.52.

In turn, `CCc1ncc[nH]1` registered a logP of 0.77.

Molecule `Cc1cccc(C)c1C(=O)c1ccccc1` displayed a lipophilicity (logP) of 3.65.

`Clc1ccc2cc3ccccc3cc2c1`: the logP came to 5.2.

Turning to `O=[N+]([O-])c1cccc2ccccc12`, the log partition coefficient (logP) is 3.06.

For the molecule `Cc1nc2ccccc2[nH]1`, the logP was 1.84.

Source of the values: the SangsterLogP compilation.
